Tests used:
Format in all cases: cell-based
[1] = test system: Chlorella sp., Chlorella kessleri, and Nostoc commune (Cs + Ck + Nc); test: Algal efficacy testing, modified ASTM 5589, paint film (Flumetsulam study); details: four weeks; for % inhibition: at the total conc given; for Total conc, ppm: concentration in paint chosen as minimum inhibitory concentration for SI, 25-26 C
Protocol: (§1) Sample preparation: A single or blend of biocides was post added into white acrylic latex paint free of biocides to give a maximum total active ingredient/s concentration tested. This paint was then diluted with a biocide free acrylic latex paint to give targeted concentrations for the testing. Depending on the type of biocide blends tested, the total biocides concentrations varies from 200 to 5000 ppm. After biocides addition or dilution, each sample was hand mixed for at least a minute until uniformity is achieved. Each of the paint samples as well as a control sample (containing no biocide) were used to prepare films on black plastic-vinyl chloride/acetate copolymer panels (LENETA, Mahwah, N.J.) using a 3 mil (0.0762 mm) bird bar applicator. The panels were thoroughly dried for at least 2 days avoiding direct exposure to sunlight. Square discs (0.5 inch; 1.27 cm^2) were cut out from each panel and were used as the substrate for fungal and algal efficacy tests. This sample size allowed for an agar border when the sample disc was placed into the well of the test plate. Each sample was tested in duplicate
(§2) Test conditions: The appropriate media (BOLD'S 3N for Chlorophytes, BG-11 for Cyanobacteria, and PDA for fungi) were used to support microbial growth. The test plates were maintained at room temp (25° C.-26° C.), in a cycled light-dark environment, for four weeks for algae. Plates for fungal challenge tests were maintained at 30 C for four weeks. At the end of the incubation period the samples were scored for percent area covered by visible microbial growth.
(§3) ASTM 5589 is a standard accelerated test method for determining resistance of various coatings (including paints) to algal defacement. To accommodate for high-throughput screening, this method was scaled down from petri plates to 6-well plates. A single coupon was placed with a pair of sterile forceps at the center of the agar plug (on top) with the painted surface facing upwards. Algal inoculums were prepared by mixing equal concentrations (1×10^6 cfu/ml) and equal volumes (depending on number of samples to be inoculated) of like growing organisms.
(§4) In Flumetsulam+various IT synergy study, three pool of mixed algae were prepared as the test inoculum, Gloeocapsa sp. and Oscillatoria sp. a mix of cyanobacteria grown on BG-11 media; Chlorella sp., Chlorella kessleri, and Nostoc commune are unicellular chlorphytes that were mixed and grown on Bold media; Trentepohlia aurea, Tretepohlia odorata, and Calotrix parientina are filamentous algae that were mixed and grown on Bold media.
(§5) Each well that contains a tested coupon was inoculated with 400 μl of organism mixture (1×10^6 cfu/ml) making sure that the whole surface (paint film as well as the agar surrounding it) was evenly covered. The plates were incubated at room temp (25° C.-26° C.) with cyclic exposure to light (OTT-Lite model # OTL4012P, 40 Watt, 26KLumen) and dark phases, for a period of four weeks. The total area covered was evaluated at the end of each week according to percent area covered in 5% increments.
(§6) The SI is calculated based on […].

[2] = test system: Trentepohlia aurea, Tretepohlia odorata, and Calotrix parientina (Cp + To + Ta); test: as above; details: four weeks; for % inhibition: at the total conc given; for Total conc, ppm: concentration in paint chosen as minimum inhibitory concentration for SI, 25-26 C
Protocol: as §1, §2, §3, §4, §5, §6

[3] = test system: Cladosporium herbarum mixed with Aureobasidium pullulans (ApCh); test: Fungal efficacy testing, modified ASTM 5590, paint film (Flumetsulam study); details: four weeks; for % inhibition: at the total conc given; for Total conc, ppm: concentration in paint chosen as minimum inhibitory concentration for SI, 30 C
Protocol: as §1, §2
(§7) ASTM 5590 is a standard accelerated test method for determining resistance of various coatings (including paints) to fungal defacement. To accommodate for high-throughput screening, this method was scaled down from petri plates to 6-well plates. To set up the test, an agar plug was placed at the bottom of each well of the sterile 6-well plate. A single coupon was placed with a pair of sterile forceps at the center of the agar plug (on top) with the painted surface facing upwards. Fungal inoculums were prepared by mixing equal concentrations (1×10^6 cfu/ml) and equal volumes (depending on number of samples to be tested) of like growing organisms. For Flumetsulam+various IT synergy study, three pools of mixed fungi were prepared as the test inoculum. Cladosporium herbarum was mixed with Aureobasidium pullulans; Aspergillus niger was mixed with Penicillium funiculosum and Alternaria alternata was mixed with Trichoderma viride. For Diclosulam+various IT synergy study, all above fungi were mixed as a single pool. Each well was inoculated with 400 μl of organism mixture (1×10^6 cfu/ml) making sure that the whole surface (paint film as well as the agar surrounding it) was evenly covered. The plates were incubated at 30° C. in presence of moisture, for a period of four weeks. The total percent area covered was evaluated and recorded at the end of each week after the 2nd week and recorded in increments of 5%.
as §6

[4] = test system: Aspergillus niger mixed with Penicillium funiculosum (AnPf); test: as above; details: four weeks; for % inhibition: at the total conc given; for Total conc, ppm: concentration in paint chosen as minimum inhibitory concentration for SI, 30 C
Protocol: as §1, §2, §7, §6

[5] = test system: Alternaria alternata mixed with Trichoderma viride (AaTv); test: as above; details: four weeks; for % inhibition: at the total conc given; for Total conc, ppm: concentration in paint chosen as minimum inhibitory concentration for SI, 30 C
Protocol: as §1, §2, §7, §6

[6] = test system: Gloeocapsa sp. and Oscillatoria sp. (Gs + Os); test: Algal efficacy testing, modified ASTM 5589, paint film (both studies); details: four weeks; for % inhibition: at the total conc given; for Total conc, ppm: concentration in paint chosen as minimum inhibitory concentration for SI
Protocol: as §1, §2, §3, §4
(§8) In Diclosulam+various IT synergy study, only two pools of mixed algae were prepared; Gloeocapsa sp. and Oscillatoria sp. grown on BG-11 media and Chlorella sp., Chlorella kessleri, Nostoc commune, Trentepohlia aurea, Tretepohlia odorata, and Calotrix parientina grown on Bold media
as §5, §6

[7] = test system: Aa + Tv + An + Pf + Ap + Ch (all fungi mixed as a single pool); test: Fungal efficacy testing, modified ASTM 5590, paint film (Diclosulam study, single pool); details: four weeks; for Total conc, ppm: Diclosulam:DIMTS study, concentration in paint used for SI, 30 C; for % inhibition: at the total conc given
Protocol: as §1, §2
as §7, with “Each well was inoculated with 400 μl of organism mixture (1×10^6 cfu/ml) making sure that the whole surface (paint film as well as the agar surrounding it) was evenly covered. The plates were incubated at 30° C. in presence of moisture, for a period of four weeks.” left out
as §6

[8] = test system: Cp + To + Ta + Cs + Ck + Nc (algae grown on Bold media); test: Algal efficacy testing, modified ASTM 5589, paint film (Diclosulam study); details: four weeks; for Total conc, ppm: Diclosulam:DIMTS study, concentration in paint used for SI; for % inhibition: at the total conc given
Protocol: as §1, §2, §3, §8
Each well that contains a tested coupon was inoculated with 400 μl of organism mixture (1×10^6 cfu/ml) making sure that the whole surface (paint film as well as the agar surrounding it) was evenly covered. […] The total area covered was evaluated at the end of each week according to percent area covered in 5% increments.
as §6

Structure (SMILES) | % inhibition [1] | Total conc, ppm [1] | % inhibition [2] | Total conc, ppm [2] | % inhibition [3] | Total conc, ppm [3] | % inhibition [4] | Total conc, ppm [4] | % inhibition [5] | Total conc, ppm [5] | % inhibition ([6]; Diclosulam:DIMTS study) | Total conc, ppm ([6]; Diclosulam:DIMTS study) | % inhibition ([6]; Flumetsulam:DIMTS study) | Total conc, ppm ([6]; Flumetsulam:DIMTS study) | Total conc, ppm [7] | % inhibition [7] | Total conc, ppm [8] | % inhibition [8]
Cc1ccc(S(=O)(=O)C(I)I)cc1 [DIMTS, diiodomethyl-p-tolylsulfone] | 100% | 1250 ppm | 100% | 1250 ppm | 100% | 625 ppm | 100% | 625 ppm | 70% | 2500 ppm | 85% | 2500 ppm | 85% | 625 ppm | 2500 ppm | 0% | 625 ppm | 100%
CCOc1nc(F)cc2nc(S(=O)(=O)Nc3c(Cl)cccc3Cl)nn12 [Diclosulam, N-(2,6-dichlorophenyl)-5-ethoxy-7-fluoro[1,2,4]triazolo[1,5-c]pyrimidine-2-sulfonamide] | – | – | – | – | – | – | – | – | – | – | 85% | 875 ppm | – | – | 3500 ppm | 0% | 437.5 ppm | 100%
Cc1ccn2nc(S(=O)(=O)Nc3c(F)cccc3F)nc2n1 [Flumetsulam, N-(2,6-difluorophenyl)-5-methyl[1,2,4]triazolo[1,5-a]pyrimidine-2-sulfonamide] | 0% | 3500 ppm | 95% | 3500 ppm | 70% | 3500 ppm | 40% | 3500 ppm | 70% | 3500 ppm | – | – | 80% | 2625 ppm | – | – | – | –

Source: patent US8722689B2, “Synergistic combination of flumetsulam or diclosulam with diiodomethyl-P-tolylsulfone” (Dow Global Technologies LLC, priority 2010, dated 2014)
